From patent US5487899A, “Wound healing” (Jess Clarke & Sons, Inc., priority 1994, dated 1996) come the findings set out here.

The subject of one assay is open wounds. As to the kind of experiment: Open wound healing assay (Example 5). The format is in vivo, ICR mice. The settings on record: daily subcutaneous, Saline control 60.0 ± 8.3. On the procedure: Adult male ICR mice (30 g, 15 animals/group) were anesthetized with ether and shaved on both sides of the back. A sterile 6 mm Baker biopsy punch was used to induce a wound on each side of the vertebral column. Anterior-posterior wound diameter measurements were made using a vernier caliper on days 0, 4 and 7. Three treatment groups received daily subcutaneous injections of a gibberellic acid (GA3) solution at dosages of 2, 10 and 100 mg/Kg, respectively. Control mice received daily injections of saline on a 10 ml/Kg basis. Standard errors for each mean value was calculated. The student's "t" test was used to determine significant differences between treatment and control groups. An analysis of variance (ANOVA) was also calculated to determine the statistical significance of the study as a whole, and gave a Fisher ratio at 16.48 which is significant at p<0.001.

The next assay deals with wound. Briefly: Wound tensile strength assay (Example 6). The format is in vivo,  mice. The settings on record: 50 mg/kg (each) × 4, subcutaneous, 6 h after day 4 injection. On the procedure: While tensile strength of wounds is measured in terms of the load applied per unit of cross section area, the breaking strength is the measure of force required to break a wound of tissue without regard to dimensions. While tensile strength is not a function of the incision length, breaking strength is. The measurements of force required to pull a wound apart differ chiefly in the manner in which the force is applied and the sophistication of the force measurement. In the data recorded herein and in the data collected in the making of the present invention, we used a conventional plastic syringe calibrated to measure […] of air injected into the peritoneal cavity of the mouse. […] Elastic bands are first placed on over the shoulders and hips of the animal to contain the injected air into a defined area of the body and to reduce error involving underlying tissue of the peritoneal cavity, and air is injected into the animal until the wound is disrupted at which time the volume of air is recorded. […]
Each wound was closed with a 9 mm wound clip at 0.25-inch spacings for a total of 3 clips per wound. […] Six hours after the day 4 injection, the tensile strength of wounds was measured by injecting air into the peritoneal cavity from a syringe as described above.

Assay [1] concerns croton oil-induced ear swelling. Briefly: croton oil-induced ear swelling (Example 4). The settings on record: Aspirin 100 μg, topical, 6 h. It is filed as in vivo, ICR-HSD mice. On the procedure:
Four groups (10 mice per group) of adult male ICR-HSD mice was given topically 25 μg/per 10 μl croton oil solutions. This irritant was applied to the inner surface of the animal's right ear, and the left ear was not treated and used as a control. One-half hour after the application of the croton oil irritant, solutions were added topically to reduce inflammation; the solutions were 1% aspirin, 2% Aloe and a solution that had both aspirin and aloe.
Six hours after the topical application of croton oil solutions, a 6 mm biopsy punch specimen was taken from each ear, weighed, and the weight differences between the two were compared to determine the amount of inflammation remaining on the right ear.

As for `C=C1C[C@]23C[C@@]1(O)CC[C@H]2[C@@]12C=C[C@H](O)[C@@](C)(C(=O)O1)[C@H]2[C@@H]3C(=O)O` [Gibberellin, gibberellic acid], the entries for the “decrease (%) in wound diameter” value in the assay with open wounds (2 mg/kg), in the assay with open wounds (10 mg/kg) and in the assay on open wounds (100 mg/kg) were 65.3 ± 11.3%, 71.6 ± 12.1% and 81.7 ± 7.0%, respectively. The “increase (%) in wound tensile strength” value in the assay with wound is recorded as 36.1 ± 1.5%.

Consider `CC(=O)Oc1ccccc1C(=O)O` [Aspirin], for which the “Inhibition (%) of croton oil-induced ear swelling” value in assay [1] is listed as 23.7 ± 3.1%.
